Experimental data reported in ChEMBL document CHEMBL5725459, “(R)-2-methyl-piperazine derivatives as CXCR3 receptor modulators” (2018).
pIC50: −log10 of the molar value.

Each molecule was assayed against T1, C-X-C chemokine receptor type 3 (Homo sapiens, UniProt P49682) (assay: Receptor Internalization Assay (RIA): Stock solutions of test compounds are made up at a concentration of 10 mM in DMSO, and serially diluted in PBS containing 0.5% BSA to concentrations required for inhibition dose response curves. Diluted compounds are then mixed with an equal volume of CXCL10 (Peprotech) diluted in PBS. Anticoagulated venous human whole blood is added to the mixture, which is then incubated in a CO2 incubator at 37° C. to allow for ligand mediated receptor internalization (final CXCL10 concentration is 9 nM). After 30 min, the blood is mixed with fluorescently labeled CXCR3 and CD4 specific antibodies (Becton Dickinson) and incubated on ice for 10 minutes. Samples are then mixed with BD FACS Lysing Solution (Becton Dickinson) in order to eliminate red blood cells. After washing the cells with PBS containing 0.5% BSA, the samples are then analyzed in a flow cytometer (FACS Canto II, Becton Dickinson). For data analysis using FACSDiva software (Becton Dickinson), the mean fluorescence corresponding to CXCR3 cell surface expression was determined on CD4 positive cells. The calculated IC50 values may fluctuate depending on the daily assay performance. Fluctuations of this kind are known to those skilled in the art. In the case where IC50 values have been determined several times for the same compound, mean values are given.).
T1 sequence (P49682 whole entry): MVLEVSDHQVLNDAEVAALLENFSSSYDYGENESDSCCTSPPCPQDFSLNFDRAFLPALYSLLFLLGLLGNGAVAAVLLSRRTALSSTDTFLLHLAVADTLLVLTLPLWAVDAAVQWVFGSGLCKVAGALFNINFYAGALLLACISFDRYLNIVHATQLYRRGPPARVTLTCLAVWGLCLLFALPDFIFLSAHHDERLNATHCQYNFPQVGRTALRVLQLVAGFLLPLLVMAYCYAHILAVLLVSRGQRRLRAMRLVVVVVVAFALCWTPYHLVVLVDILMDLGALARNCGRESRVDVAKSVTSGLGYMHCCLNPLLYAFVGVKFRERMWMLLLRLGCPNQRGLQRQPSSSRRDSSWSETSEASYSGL

`CC(C)c1ncn(CC(=O)N2C(C)CNCC2c2sc(C(F)(F)F)cc2-c2cnc(C(F)(F)F)nc2)n1` (centres undefined) and `Cc1ncn(CC(=O)N2C(C)CNCC2c2sc(C(F)(F)F)cc2-c2cnc(C(F)(F)F)nc2)n1` (centres undefined) are within 0.2 log units of each other in pIC50: 6.76 for the first, 6.72 for the second.

First: CCc1ncn(CC(=O)N2C(C)CNCC2c2sc(C(F)(F)F)cc2-c2cnc(C3CC3)nc2)n1 (centres undefined)
Second: COCc1ncn(CC(=O)N2C(C)CNCC2c2sc(C(F)(F)F)cc2-c2cnc(C3CC3)nc2)n1 (centres undefined)
The pIC50 of the first is 0.86 log units higher: 6.72 for the first, 5.86 for the second. The first is the more potent here.

Compared with `CC1CNCC(c2sc(C(F)(F)F)cc2-c2cnc(C(F)(F)F)nc2)N1C(=O)Cn1cnc(C(C)(C)C)n1` (centres undefined), `CC1CNCC(c2sc(C(F)(F)F)cc2-c2cnc(C(F)(F)F)nc2)N1C(=O)Cn1cnc(C(C)(C)O)n1` (centres undefined) is 0.38 log units lower in pIC50: 6.46 for the first, 6.08 for the second. The first is the more potent here.

`CCc1ncn(CC(=O)N2C(C)CNCC2c2sc(C(F)(F)F)cc2-c2cnc(C(F)(F)F)nc2)n1` (centres undefined) and `CCCc1ncn(CC(=O)N2C(C)CNCC2c2sc(C(F)(F)F)cc2-c2cnc(C(F)(F)F)nc2)n1` (centres undefined) are within 0.2 log units of each other in pIC50: 6.83 for the first, 6.66 for the second.

`CC(C)c1ncn(CC(=O)N2C(C)CNCC2c2sc(C(F)(F)F)cc2-c2cnc(C3CC3)nc2)n1` (centres undefined) and `Cc1ncn(CC(=O)N2C(C)CNCC2c2sc(C(F)(F)F)cc2-c2cnc(C3CC3)nc2)n1` (centres undefined) are within 0.2 log units of each other in pIC50: 6.28 for the first, 6.34 for the second.

Going from `CCOc1ncc(-c2cc(C(F)(F)F)sc2C2CNCC(C)N2C(=O)Cn2cnc(CC)n2)cn1` (centres undefined) to `CCOc1ncc(-c2cc(C(F)(F)F)sc2C2CNCC(C)N2C(=O)Cn2cnc(COC)n2)cn1` (centres undefined), the pIC50 falls from 6.63 to 6.02 (0.61 log units).

`COCc1ncn(CC(=O)N2C(C)CNCC2c2sc(C(F)(F)F)cc2-c2cnc(C(F)(F)F)nc2)n1` (centres undefined) and `CC1CNCC(c2sc(C(F)(F)F)cc2-c2cnc(C(F)(F)F)nc2)N1C(=O)Cn1cnc(CO)n1` (centres undefined) are within 0.2 log units of each other in pIC50: 6.22 for the first, 6.09 for the second.

Compared with `CCOc1ncc(-c2cc(C(F)(F)F)sc2C2CNCC(C)N2C(=O)Cn2cnc(C(C)(C)C)n2)cn1` (centres undefined), `CCOc1ncc(-c2cc(C(F)(F)F)sc2C2CNCC(C)N2C(=O)Cn2cnc(C)n2)cn1` (centres undefined) is 0.42 log units higher in pIC50: 6.26 for the first, 6.68 for the second.

Compared with `CCOc1ncc(-c2cc(C(F)(F)F)sc2C2CNCC(C)N2C(=O)Cn2cnc(C(C)C)n2)cn1` (centres undefined), `CC1CNCC(c2sc(C(F)(F)F)cc2-c2cnc(C3CC3)nc2)N1C(=O)Cn1cnc(C(C)(C)C)n1` (centres undefined) is 0.35 log units lower in pIC50: 6.52 for the first, 6.17 for the second. The first is the more potent here.

`CC1CNCC(c2sc(C(F)(F)F)cc2-c2cnc(C(F)(F)F)nc2)N1C(=O)Cn1cnc(C(N)=O)n1` (centres undefined) was tested, and the pIC50 was 5.77.
